The values below come from ChEMBL document CHEMBL1201862, “PubChem BioAssay data set” (2004).

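Cultured in 96-well plates, cells were exposed to test compound for 48 hours across five concentrations. At the GI50, growth is halved.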 The source made the active and inactive calls. Cut-off read from the data, not from the text of the source: active = GI50 up to about 1.1 µM and inactive = higher.

Some test systems named below: A498; A549; CAKI-1; DU-145; HCT-116; Hs-578T; IGROV-1; K562; KM12; MDA-MB-435; MOLT-4; Malme-3M; OVCAR-3; OVCAR-5; SF-295; SK-MEL-28; SK-OV-3; SNB-19; U-251.
Common to all, as to assay: DTP human tumour cell line panel, 48 h

Take `O=C(c1ccc(Cl)cc1)N(C(=S)OCCOc1ccccc1)c1ccccc1`: the GI50 was 14.9 µM (inactive) in the experiment with A498; 16.3 µM (inactive) in the experiment with A549; 17.4 µM (inactive) with CAKI-1; 17.3 µM (inactive) in the experiment on DU-145; 16.2 µM (inactive) in the experiment on HCT-116; 46.9 µM (inactive) in the experiment with Hs-578T. For the same molecule, the GI50 in the experiment on IGROV-1 is 16.9 µM (inactive); in the experiment with K562, 30.4 µM (inactive); in the experiment with KM12, 19.1 µM (inactive); in the experiment on MDA-MB-435 it was 17 µM (inactive); with MOLT-4, 22.4 µM (inactive); in the experiment with Malme-3M it was 29 µM (inactive). Besides, the GI50 in the experiment on OVCAR-3 was 17.2 µM (inactive); in the experiment with OVCAR-5, 17 µM (inactive); in the experiment on SF-295 it was 27.6 µM (inactive); in the experiment on SK-MEL-28, 15.8 µM (inactive); in the experiment with SK-OV-3, 36.1 µM (inactive); in the experiment on SNB-19, 19.2 µM (inactive). In the experiment on U-251, the GI50 is 16.2 µM (inactive).
In the case of `CC1CCC2C(C)C3C(CC4C5CC=C6CC(OC7OC(CO)C(O)C(OC8OC(CO)C(O)C(O)C8O)C7OC7OC(C)C(O)C(O)C7O)CCC6(C)C5CCC43C)N2C1` (configuration not stated), the GI50 was 17.5 µM (inactive) with A498; 7.05 µM (inactive) in the experiment on A549; 11.3 µM (inactive) with CAKI-1; 18.9 µM (inactive) in the experiment on DU-145; 11.1 µM (inactive) in the experiment with HCT-116; 13.7 µM (inactive) with Hs-578T. Also, the GI50 was 12.4 µM (inactive) with IGROV-1; 16 µM (inactive) with K562; 14.8 µM (inactive) in the experiment with KM12; 9.12 µM (inactive) in the experiment on MDA-MB-435; 28.6 µM (inactive) in the experiment with MOLT-4; 27.7 µM (inactive) with Malme-3M. Also, the GI50 with OVCAR-3 is 17.4 µM (inactive); with OVCAR-5, 14.3 µM (inactive); with SF-295, 10.2 µM (inactive); in the experiment on SK-MEL-28, 7.94 µM (inactive); in the experiment with SK-OV-3 it was 16 µM (inactive); in the experiment on SNB-19, 10.5 µM (inactive). Moreover, the GI50 with U-251 was 16 µM (inactive).
For the molecule `CC(C)(C)OC(=O)c1ccc(NCc2cc(O)ccc2O)cc1`, the GI50 with A498 is 9.68 µM (inactive); in the experiment with A549, 7.4 µM (inactive); in the experiment on CAKI-1 it was 0.676 µM (active); in the experiment on DU-145, 7.78 µM (inactive); with HCT-116, 3.49 µM (inactive); in the experiment with Hs-578T, 1.69 µM (inactive). Also, the GI50 is 1.77 µM (inactive) in the experiment on IGROV-1; 2.03 µM (inactive) in the experiment on K562; 2.93 µM (inactive) with KM12; 2.96 µM (inactive) in the experiment on MDA-MB-435; 1.03 µM (active) in the experiment with MOLT-4; 1.85 µM (inactive) in the experiment with Malme-3M. The GI50 in the experiment with OVCAR-3 was 1.04 µM (active); in the experiment with OVCAR-5 it was 6.58 µM (inactive); with SF-295, 7.41 µM (inactive); in the experiment on SK-MEL-28 it was 2.03 µM (inactive); in the experiment on SK-OV-3, 6.05 µM (inactive); in the experiment with SNB-19, 8.07 µM (inactive). In the experiment on U-251, the GI50 was 1.95 µM (inactive).
Take `COc1ccc(OCC(=N/NC(=O)c2ccncc2)/N=C/c2cccnc2)cc1`: the GI50 in the experiment on A498 is 65.3 µM (inactive); in the experiment on A549, 92.9 µM (inactive); in the experiment on CAKI-1, > 100 µM (inactive); in the experiment on DU-145 it was > 100 µM (inactive); in the experiment on HCT-116, > 100 µM (inactive); in the experiment with Hs-578T, 57.9 µM (inactive). The GI50 with IGROV-1 is > 100 µM (inactive); with K562, 44.7 µM (inactive); in the experiment on KM12, 50.9 µM (inactive); in the experiment with MDA-MB-435 it was 18.2 µM (inactive); in the experiment with MOLT-4 it was 69.8 µM (inactive); in the experiment with Malme-3M, 43.6 µM (inactive). Further, the GI50 in the experiment on OVCAR-3 is 65.8 µM (inactive); in the experiment with OVCAR-5, > 100 µM (inactive); in the experiment on SF-295, 84.7 µM (inactive); in the experiment on SK-MEL-28 it was 94.8 µM (inactive); in the experiment on SK-OV-3 it was > 100 µM (inactive); in the experiment with SNB-19, > 100 µM (inactive). In the experiment with U-251, the GI50 was > 100 µM (inactive).
Regarding `CCOC(=O)C(NC(=O)c1ccccc1)(N1CCN(c2cc3c(cc2F)c(=O)c(C(=O)O)cn3C2CC2)CC1)C(F)(F)F` (configuration not stated), the GI50 was 28.1 µM (inactive) in the experiment on A498; 34 µM (inactive) with A549; 19.3 µM (inactive) in the experiment with CAKI-1; 27.5 µM (inactive) in the experiment with DU-145; 17.1 µM (inactive) in the experiment with HCT-116; 26.2 µM (inactive) in the experiment on Hs-578T. In addition, the GI50 is 30.4 µM (inactive) in the experiment on IGROV-1; 20.2 µM (inactive) in the experiment on K562; 16.8 µM (inactive) in the experiment with KM12; 21.1 µM (inactive) in the experiment on MDA-MB-435; 14.1 µM (inactive) with MOLT-4; 20.2 µM (inactive) in the experiment on Malme-3M. Also, the GI50 is 23.4 µM (inactive) in the experiment with OVCAR-3; 20.4 µM (inactive) in the experiment with OVCAR-5; 27 µM (inactive) in the experiment with SF-295; 28 µM (inactive) in the experiment with SK-MEL-28; 28.6 µM (inactive) in the experiment with SK-OV-3; 29.2 µM (inactive) with SNB-19. For the same molecule, the GI50 in the experiment with U-251 was 29.9 µM (inactive).
On to `COc1ccc(/C=C/C(=O)c2nc3ccccc3[nH]2)cc1`, for which the GI50 is 26.4 µM (inactive) in the experiment on A498; 24.9 µM (inactive) with A549; 33.3 µM (inactive) with CAKI-1; 17.3 µM (inactive) in the experiment with DU-145; 5.37 µM (inactive) in the experiment with HCT-116; 21.3 µM (inactive) with Hs-578T. The GI50 was 6.07 µM (inactive) with IGROV-1; 4.88 µM (inactive) with K562; 4.62 µM (inactive) in the experiment with KM12; 11.7 µM (inactive) in the experiment with MDA-MB-435; 18 µM (inactive) in the experiment with MOLT-4; 19 µM (inactive) with Malme-3M. Moreover, the GI50 with OVCAR-3 is 17.8 µM (inactive); in the experiment on OVCAR-5 it was 22 µM (inactive); with SF-295, 21 µM (inactive); in the experiment with SK-MEL-28, 24.5 µM (inactive); in the experiment with SK-OV-3, 21.2 µM (inactive); in the experiment with SNB-19, 24.2 µM (inactive). Also, the GI50 in the experiment with U-251 is 13.8 µM (inactive).
Regarding `Nc1ncnc2c1ccn2C/C=C/CO`, the GI50 in the experiment on A498, in the experiment with A549, with CAKI-1, in the experiment on DU-145, with HCT-116 and with Hs-578T was > 100 µM (inactive) each time. For the same molecule, the GI50 in the experiment with IGROV-1, in the experiment with K562, in the experiment with KM12, in the experiment with MDA-MB-435, with MOLT-4 and in the experiment with Malme-3M was > 100 µM (inactive) in each case. Also, the GI50 in the experiment on OVCAR-3, in the experiment on OVCAR-5, in the experiment on SF-295, in the experiment on SK-MEL-28, with SK-OV-3 and in the experiment with SNB-19 was > 100 µM (inactive) in each case. Moreover, the GI50 in the experiment with U-251 was > 100 µM (inactive).
Regarding `O=[N+]([O-])c1cc2oc(CSc3ccccc3)nc2cc1Cl`, the GI50 with A498 is 25.5 µM (inactive); in the experiment on A549, 36.9 µM (inactive); with CAKI-1, 29 µM (inactive); in the experiment on DU-145, 37.7 µM (inactive); with HCT-116 it was 29.4 µM (inactive); in the experiment with Hs-578T it was 51.6 µM (inactive). The GI50 is 33.9 µM (inactive) in the experiment with IGROV-1; 36.2 µM (inactive) in the experiment with K562; 32 µM (inactive) in the experiment on KM12; 32.4 µM (inactive) in the experiment with MDA-MB-435; 22.3 µM (inactive) with MOLT-4; 50 µM (inactive) in the experiment on Malme-3M. Moreover, the GI50 was 30 µM (inactive) with OVCAR-3; 31.3 µM (inactive) with OVCAR-5; 28.2 µM (inactive) in the experiment on SF-295; 35.2 µM (inactive) in the experiment with SK-MEL-28; 29.5 µM (inactive) in the experiment with SK-OV-3; 45.1 µM (inactive) in the experiment with SNB-19. Moreover, in the experiment on U-251, the GI50 was 23.6 µM (inactive).

In general, GI50 refers to the concentration at which growth is held to half of that of the control.
